In one series the test system is SU-DHL-10 xenograft. Nature of the series: Human xenograft model, diffuse large B-cell lymphoma line SU-DHL-10. It is filed as in vivo, SCID beige mice. As to conditions: once daily oral gavage, p<0.01 for 10 and 30 mpk doses. The protocol:
(§1) FIG. 10 is a set of graphs of in vivo treatment results for Athymic Nude mice engrafted with the DLBCL line SU-DHL-10 (left panel) or the CRC line HCT-116 (right panel). After 14 days, groups of mice (n=10 per group) were randomized by tumor volume and treated with Compound B19 (left panel) or Compound A197 (right panel). All animals dosed p.o. q.d. (orally once per day). Tumor burden was measured over 21 days. Compound B19 efficacy was monitored for 21 days following last dose to determine relapse. All data plotted as the mean±SEM, n=10 mice per group.
(§2) The positive results of the PK studies led to an evaluation of Compound A197 and Compound B19 in murine xenograft models of human tumors. Compound A197 was tested in a human tumor xenograft model using KRAS mutated colorectal cancer cell line HCT-116. Athymic nude mice (HSD:Athymic Nude-Foxn1 nu, Envigo) were inoculated subcutaneously with 5×10^6 HCT-116 cells in the right rear flank. The animals wethen staged and randomized by tumor size to achieve dose groups of 10 animals each with an average tumor volume of 150 mm^3. Tumor bearing mice were dosed once daily by oral gavage with a vehicle (5% NMP, 15% PEG400, 10% Solutol, and 70% D5W) or with A197 dissolved in vehicle to provide a dose concentration of 10 ml/kg. Compound B19 was tested in a human xenograft model using the human diffuse large B-cell lymphoma line SU-DHL-10 (ATCC). […]
On the technique in general: Xenograft models place foreign cells or tissue in a host animal.

The test system of a further series is GPCR. The series is described as follows: In vitro assays: GPCR. As to conditions: 69 family members. It is filed as biochemical.
Another series deals with HCT-116 xenograft. The series is described as follows: Human tumor xenograft model, colorectal cancer cell line HCT-116. It is filed as in vivo. The protocol:
as §1, §2

For a further series, the system named is eIF2α phosphorylation. Nature of the series: eIF2α phosphorylation in HCT-116 cells, Western blotting. Type of series: cell-based, human. To be noted: 5 μM, 30 minutes, 1, 2 or 4 hrs. As to the method:
FIG. 12 is a set of graphs of Compound A197-induced phosphorylation of eIF2a. HCT-116 cells were treated with 5 μM Compound A197. eIF2α and p-eIF2α levels were determined by Western blotting. All data are mean±SD (n=3). *=p<0.05; #p<0.005.
The canonical pathway of ATF4 induction involves eIF2α phosphorylation. To determine the levels of levels of eIF2α and p-eIF2α were determined using Western blotting. HCT-116 cells (1.5×10^5 per well) were cultured in 12 well tissue culture plates and treated with 5 μM Compound A197 dissolved in McCoys complete medium with 10% FBS for 30 minutes, 1,2 or 4 hrs. Following treatment, media was removed, the cells were washed with PBS and then lysed following addition of RIPA lysis buffer. The cell lysate is then clarified by centrifugation at 14,000×g for 10 minutes. The clarified lysate protein levels are determined using BCA methodology. All lysates are diluted with RIPA buffer to give a final concentration of 200 μg/ml. As a control, HCT-116 cells were starved for essential amino acids (EAA), which increases eIF2α phosphorylation via EIF2AAK4 (GCN2). The HCT-116 cells were plated as above but the media was removed and replaced with Earls Balanced salt solution. All subsequent steps for lysate preparation were identical to those described above.

Another series has as its system Autophagy. Nature of the series: High content imaging screen: autophagy (LC3 cleavage, autophagic granules). It is filed as cell-based. The protocol:
Mechanism of Action Screens A series of broad high content imaging, transcriptomic, metabolomic, and CRISPR KO screens were performed to link Compound A197 activity to a probable method of action. The outcome of these screens included two notable observations.

The structures appear in SMILES notation.

Consider `COC(=O)c1c(-c2cccc(F)c2)c(C)nn1-c1nc(C2=CCC(C(F)(F)F)CC2)c(SC(C)C)s1` (single isomer, unassigned) [Compound B19, methyl 4-(3-fluorophenyl)-1-(5-(isopropylthio)-4-(4-(trifluoromethyl)cyclohex-1-en-1-yl)thiazol-2-yl)-3-methyl-1H-pyrazole-5-carboxylate], for which the “regression in DLBCL tumors” value in the series on SU-DHL-10 xenograft is “dose-dependent and durable regression in DLBCL tumors by day 21”.
Regarding `Cc1nn(-c2nc(-c3ccc(C(F)(F)F)cc3)c(SC(C)C)s2)c(C(=O)O)c1-c1cccc(F)c1` [Compound A197, 4-(3-fluorophenyl)-1-(5-(isopropylthio)-4-(4-(trifluoromethyl)phenyl)thiazol-2-yl)-3-methyl-1H-pyrazole-5-carboxylic acid], the “Outcome: GPCR” value in the series on GPCR is reported as “No activity on 69 family members”. For the same compound, the “tumor growth in the solid tumor model” value in the series with HCT-116 xenograft (HCT-116 xenograft, once daily oral gavage, 21 days, p<01 for 75 and 30 mpk doses) is reported as “significantly slower growth”. Moreover, the “tolerability, signs of toxicity” value in the series on HCT-116 xenograft (markers of liver function, metabolism, and myelopoiesis, tumor bearing mice (data not shown)) is recorded as “well-tolerated with no overt signs of toxicity”. For the same compound, the eIF2α phosphorylation result in the series on eIF2α phosphorylation is reported as “Increased eIF2α phosphorylation within 30 minutes”. The “Outcome: Autophagy” value with Autophagy is listed as “No detectable LC3 cleavage; no formation of”.

These data come from patent US20210278408A1, “METHODS OF TREATMENT OF CANCER WITH SUBSTITUTED PYRROLE AND PYRAZOLE COMPOUNDS AND DIAGNOSIS OF CANCERS SUSCEPTIBLE TO TREATMENT WITH SUBSTITUTED PYRROLE AND PYRAZOLE COMPOUNDS” (Bantam Pharmaceutical, LLC, priority 2018, published 2021).
